Consider 20 molecules from US20090062294A1, “HETEROARYL-SUBSTITUTED UREA MODULATORS OF FATTY ACID AMIDE HYDROLASE” (priority 2007, published 2009).

SMILES strings stand for the structures. Counter-ions that a name gives are not always drawn.

One may read the IC50 as the concentration that inhibits the measured activity by half. A higher IC50 goes with lower potency.

In the first test the target is T1, FAAH (Homo sapiens, UniProt O00519).
T1 sequence (O00519 1-579): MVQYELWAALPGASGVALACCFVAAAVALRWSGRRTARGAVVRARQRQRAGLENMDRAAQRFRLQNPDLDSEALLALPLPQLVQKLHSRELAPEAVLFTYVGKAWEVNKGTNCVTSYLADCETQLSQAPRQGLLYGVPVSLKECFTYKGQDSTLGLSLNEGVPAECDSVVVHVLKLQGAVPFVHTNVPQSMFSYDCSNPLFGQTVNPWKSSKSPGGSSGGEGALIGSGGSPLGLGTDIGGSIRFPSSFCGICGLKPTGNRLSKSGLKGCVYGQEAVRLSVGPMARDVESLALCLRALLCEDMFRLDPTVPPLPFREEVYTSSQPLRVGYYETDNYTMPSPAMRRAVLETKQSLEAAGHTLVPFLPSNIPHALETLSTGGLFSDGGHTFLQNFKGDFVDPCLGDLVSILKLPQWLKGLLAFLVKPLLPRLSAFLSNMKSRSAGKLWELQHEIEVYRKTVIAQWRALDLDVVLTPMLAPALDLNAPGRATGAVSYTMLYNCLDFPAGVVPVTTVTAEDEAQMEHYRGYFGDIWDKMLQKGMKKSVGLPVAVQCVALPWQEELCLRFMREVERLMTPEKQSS
Kind of test: Assay Method 1: FAAH assay, 3H-anandamide hydrolysis in homogenate of T84 cells or SK-N-MC cells transfected with human FAAH. The conditions noted are these: average of results, > = solubility limit or highest concentration tested. Type of test: biochemical. Here is the method:
A. Transfection of Cells with Human FAAH
(§1) A 10-cm tissue culture dish with a confluent monolayer of SK—N-MC cells was split 2 days (d) prior to transfection. Using sterile technique, the media was removed and the cells were detached from the dish by the addition of trypsin. One fifth of the cells were then placed onto a new 10-cm dish. Cells were grown in a 37° C. incubator with 5% CO2 in Minimal Essential Media Eagle with 10% Fetal Bovine Serum. After 2 d, cells were approximately 80% confluent. These cells were removed from the dish with trypsin and pelleted in a clinical centrifuge. The pellet was re-suspended in 400 μL complete media and transferred to an electroporation cuvette with a 0.4 cm gap between the electrodes. Supercoiled human FAAH cDNA (1 μg) was added to the cells and mixed. The voltage for the electroporation was set at 0.25 kV, and the capacitance was set at 960 μF. After electroporation, the cells were diluted into complete media (10 mL) and plated onto four 10-cm dishes. Because of the variability in the efficiency of electroporation, four different concentrations of cells were plated. The ratios used were 1:20, 1:10, and 1:5, with the remainder of the cells being added to the fourth dish. The cells were allowed to recover for 24 h before adding the selection media (complete media with 600 μg/mL G418). After 10 d, dishes were analyzed for surviving colonies of cells. Dishes with well-isolated colonies were used. Cells from individual colonies were isolated and tested.
(§2) T84 frozen cell pellets or transfected SK—N-MC cells (contents of 1×15 cm culture dishes) were homogenized in 50 mL of FAAH assay buffer (125 mM Tris, 1 mM EDTA, 0.2% Glycerol, 0.02% Triton X-100, 0.4 mM Hepes, pH 9). The assay mixture consisted of 50 μL of the cell homogenate, 10 μL of the test compound, and 40 μL of anandamide [1-^3H-ethanolamine] (^3H-AEA, Perkin-Elmer, 10.3 Ci/mmol), which was added last, for a final tracer concentration of 80 nM. The reaction mixture was incubated at rt for 1 h. During the incubation, 96-well Multiscreen filter plates (catalog number MAFCNOB50; Millipore, Bedford, Mass., USA) were loaded with 25 μL of activated charcoal (Multiscreen column loader, catalog number MACL09625, Millipore) and washed once with 100 μL of MeOH. Also during the incubation, 96-well DYNEX MicroLite plates (catalog number NL510410) were loaded with 100 μL of MicroScint40 (catalog number 6013641, Packard Bioscience, Meriden, Conn., USA). After the 1 h incubation, 60 μL of the reaction mixture were transferred to the charcoal plates, which were then assembled on top of the DYNEX plates using Centrifuge Alignment Frames (catalog number MACF09604, Millipore). The unbound labeled ethanolamine was centrifuged through to the bottom plate (5 min at 2000 rpm), which was preloaded with the scintillant, as described above. The plates were sealed and left at rt for 1 h before counting on a Hewlett Packard TopCount.
(§3) Compounds were tested in free base, hydrochloride salt, and/or trifluoroacetic acid salt forms.
In the case of `O=C(Nc1noc2ccccc12)N1CCN(Cc2ccc3c(c2)OC(F)(F)O3)CC1` [Example 1, 4-(2,2-Difluoro-benzo[1,3]dioxol-5-ylmethyl)-piperazine-1-carboxylic acid benzo[d]isoxazol-3-ylamide trifluoroacetic acid salt], the midpoint of inhibition, the IC50, lay at 103 nM.
Same read-out and setting: for `O=C(Nc1nc(-c2ccccc2)ns1)N1CCN(Cc2ccc3c(c2)OC(F)(F)O3)CC1` [Example 2, 4-(2,2-Difluoro-benzo[1,3]dioxol-5-ylmethyl)-piperazine-1-carboxylic acid (3-phenyl-[1,2,4]thiadiazol-5-yl)-amide trifluoroacetic acid salt] the value was 212 nM; for `O=C(Nc1nnn[nH]1)N1CCN(Cc2ccc3c(c2)OC(F)(F)O3)CC1` [Example 3, 4-(2,2-Difluoro-benzo[1,3]dioxol-5-ylmethyl)-piperazine-1-carboxylic acid (1H-tetrazol-5-yl)-amide trifluoroacetic acid salt], 1200 nM.
The same measure, in the same setting: for `O=C(Nc1noc2ccccc12)N1CCN(Cc2cccc(Oc3ncccn3)c2)CC1` [Example 95, 4-[3-(Pyrimidin-2-yloxy)-benzyl]-piperazine-1-carboxylic acid benzo[d]isoxazol-3-ylamide] the value was 2800 nM.
On the same count and under the same terms, the result for `O=C(Nc1noc2ccccc12)N1CCN(Cc2ccc3cn[nH]c3c2)CC1` [Example 101, N-1,2-Benzisoxazol-3-yl-4-(1H-indazol-6-ylmethyl)piperazine-1-carboxamide] reads 6300 nM.
The molecule `O=C(Nc1ccon1)N1CCN(Cc2ccc(OCc3ccccc3)cc2)CC1` [Example 135, 4-[4-(Benzyloxy)benzyl]-N-isoxazol-3-ylpiperazine-1-carboxamide] registered an IC50 of 825 nM.
Still for that read-out and setting: the result for `O=C(Nc1ccon1)N1CCN(Cc2cc3ccccc3s2)CC1` [Example 142, 4-(1-Benzothiophen-2-ylmethyl)-N-isoxazol-3-ylpiperazine-1-carboxamide] reads 2000 nM; that for `O=C(Nc1ccon1)N1CCN(Cc2ccc3ccccc3n2)CC1` [Example 146, 4-Quinolin-2-ylmethyl-piperazine-1-carboxylic acid isoxazol-3-ylamide], 3000 nM.
Still for that read-out and setting: the result for `O=C(Nc1ccon1)N1CCN(Cc2ccc(Br)c(Br)c2)CC1` [Example 154, 4-(3,4-Dibromobenzyl)-N-isoxazol-3-ylpiperazine-1-carboxamide] reads 1300 nM.
Still for that read-out and setting: the result for `O=C(Nc1nn[nH]n1)N1CCN(Cc2ccc3c(c2)OCO3)CC1` [Example 180, 4-Benzo[1,3]dioxol-5-ylmethyl-piperazine-1-carboxylic acid (2H-tetrazol-5-yl)-amide] reads more than 10000 nM; that for `O=C(Nc1cnccn1)N1CCN(Cc2ccc(OCc3ccccc3)cc2)CC1` [Example 219, 4-[4-(Benzyloxy)benzyl]-N-pyrazin-2-ylpiperazine-1-carboxamide], 230 nM.
`O=C(Nc1cnccn1)N1CCN(Cc2cccc(OCc3ccccc3)c2)CC1` [Example 223, 4-[3-(Benzyloxy)benzyl]-N-pyrazin-2-ylpiperazine-1-carboxamide] registered a half-maximal inhibitory concentration (IC50) of 180 nM.

The next test concerns the target T2, rat FAAH (Rattus norvegicus, UniProt P97612).
T2 sequence (P97612 1-579): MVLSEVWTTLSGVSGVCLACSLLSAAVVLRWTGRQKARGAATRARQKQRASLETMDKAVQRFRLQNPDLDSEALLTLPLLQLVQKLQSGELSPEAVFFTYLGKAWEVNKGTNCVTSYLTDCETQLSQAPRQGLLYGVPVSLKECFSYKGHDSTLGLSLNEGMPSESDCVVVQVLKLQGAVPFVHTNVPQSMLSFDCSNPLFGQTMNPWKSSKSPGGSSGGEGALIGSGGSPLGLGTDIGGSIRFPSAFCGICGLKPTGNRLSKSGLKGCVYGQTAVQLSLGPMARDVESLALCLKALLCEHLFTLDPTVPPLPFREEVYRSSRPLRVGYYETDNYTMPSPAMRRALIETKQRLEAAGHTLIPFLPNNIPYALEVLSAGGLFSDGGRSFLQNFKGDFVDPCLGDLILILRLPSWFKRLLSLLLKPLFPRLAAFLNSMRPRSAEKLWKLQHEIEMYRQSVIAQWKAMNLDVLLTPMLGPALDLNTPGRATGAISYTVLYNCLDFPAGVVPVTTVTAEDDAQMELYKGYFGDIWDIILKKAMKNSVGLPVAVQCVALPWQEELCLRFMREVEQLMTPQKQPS
The test can be described thus: Assay Method 2: FAAH assay, 3H-anandamide hydrolysis in homogenate of SK-N-MC cells transfected with rat FAAH. Type of test: biochemical. The note with it: average of results, > = solubility limit or highest concentration tested. Here is the method:
A. Transfection of Cells with Rat FAAH
as §1, with “rat” for “human”
as §2, §3
In turn, `O=C(Nc1noc2ccccc12)N1CCN(Cc2ccc3c(c2)OC(F)(F)O3)CC1` [Example 1, 4-(2,2-Difluoro-benzo[1,3]dioxol-5-ylmethyl)-piperazine-1-carboxylic acid benzo[d]isoxazol-3-ylamide trifluoroacetic acid salt] registered an IC50 of 337 nM.
Still for that read-out and setting: the result for `O=C(Nc1nnn[nH]1)N1CCN(Cc2ccc3c(c2)OC(F)(F)O3)CC1` [Example 3, 4-(2,2-Difluoro-benzo[1,3]dioxol-5-ylmethyl)-piperazine-1-carboxylic acid (1H-tetrazol-5-yl)-amide trifluoroacetic acid salt] reads 9000 nM.
The same measure, in the same setting: for `O=C(Nc1ccc2ncccc2n1)N1CCC(Cc2ccc3ccccc3c2)CC1` [Example 17, 4-Naphthalen-2-ylmethyl-piperidine-1-carboxylic acid [1,5]naphthyridin-2-ylamide trifluoroacetic acid salt] the value was 517 nM; for `O=C(Nc1ccc(Cl)nn1)N1CCC(Cc2ccc(F)cc2)CC1` [Example 23, 4-(4-Fluoro-benzyl)-piperidine-1-carboxylic acid (6-chloro-pyridazin-3-yl)-amide], 5000 nM; for `O=C(Nc1ccon1)N1CCC(Cc2ccc(F)cc2)CC1` [Example 24, 4-(4-Fluoro-benzyl)-piperidine-1-carboxylic acid isoxazol-3-ylamide], 4000 nM.
On the same count and under the same terms, the result for `O=C(Nc1cccc2nsnc12)N1CCN(Cc2cccc(Oc3ccc(Cl)cc3)c2)CC1` [Example 37, 4-[3-(4-Chloro-phenoxy)-benzyl]-piperazine-1-carboxylic acid benzo[1,2,5]thiadiazol-4-ylamide trifluoroacetic acid salt] reads 6 nM; that for `O=C(Nc1cc[nH]n1)N1CCN(Cc2cccc(Oc3ccc(Cl)cc3)c2)CC1` [Example 53, 4-[3-(4-Chloro-phenoxy)-benzyl]-piperazine-1-carboxylic acid (1H-pyrazol-3-yl)-amide trifluoroacetic acid salt], 30 nM.
Turning to `O=C(Nc1nnn[nH]1)N1CCN(Cc2cccc(Oc3ccc(Cl)cc3)c2)CC1` [Example 57, 4-[3-(4-Chloro-phenoxy)-benzyl]-piperazine-1-carboxylic acid (1H-tetrazol-5-yl)-amide trifluoroacetic acid salt], half-maximal inhibition (IC50) required 167 nM.
`O=C(Nc1ccon1)N1CCN(Cc2cnc3ccccc3c2)CC1` [Example 147, 4-Quinolin-3-ylmethyl-piperazine-1-carboxylic acid isoxazol-3-ylamide] returned a concentration for half-maximal inhibition (IC50) of more than 10000 nM.
Consider `O=C(Nc1nnn[nH]1)N1CCN(Cc2ccc3ccccc3n2)CC1` [Example 175, 4-(Quinolin-2-ylmethyl)-N-1H-tetrazol-5-ylpiperazine-1-carboxamide], for which the IC50 was determined as 1000 nM.
